According to the supplement of paper PMC11451515:

Assays:
Conditions in all cases: 48 h
SEM cells [1] = test: AUC of viability dose-response curve (% viability x log10 dose units); higher = less sensitive
In short: (§1)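 Leukemia cells adapted to each medium (500 or 1000 cells/well, 1536-well plates) were exposed to library compounds in DMSO for 48 h at 37°C at 11 threefold doses, 47 μM to 0.79 nM. Luminescence by CellTiter-Glo One was normalised per plate to DMSO and cell-free wells, then fitted with a four-parameter log-logistic curve on log10 dose. Curves above full viability were scaled and quality-control failures removed before area under the curve was integrated by trapezoidal rule.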

NOMO1 [2] = test: as above
In short: as §1

P12-Ichikawa [3] = test: as above
In short: as §1

SEM cells [4] = test: cell viability relative to DMSO control; higher = less cytotoxic
In short: (§2)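 In 1536-well plates, 5 μl of leukemia cells were seeded per well: 500 cells/well for NOMO1 or SEM and 1000 cells/well for P12-Ichikawa. Each line had first been adapted for at least four passages in each medium. Library compounds in DMSO were pin-dosed at 11 threefold concentrations between 47 μM and 0.79 nM, and CellTiter-Glo One luminescence was read after 48 h at 37°C. Viability is a per-plate percentage relative to DMSO wells, with cell-free wells as background.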

NOMO1 [5] = test: as above
In short: as §2

P12-Ichikawa [6] = test: as above
In short: as §2

Cn1cc(/C=C/C(=O)c2cccc(F)c2)cc1/C=C/C(=O)NO
AUC of viability dose-response curve
Conditions | NOMO1 [2] | P12-Ichikawa [3] | SEM cells [1]
HPLM + 10% dialyzed FBS | 468 | 466 | 474
RPMI 5 mM glucose + 10% FBS | 470 | 475 | 476
RPMI 5 mM glucose + 10% dialyzed FBS | 468 | 462 | 469

SEM cells [4], HPLM + 10% dialyzed FBS
Conditions | cell viability [%]
0.000781 µM | 123
0.00234 µM | 133
0.00702 µM | 120
0.0211 µM | 129
0.0632 µM | 136
0.19 µM | 120
0.569 µM | 137
1.71 µM | 128
5.12 µM | 137
15.4 µM | 132
46.1 µM | 118

O=c1c(-c2ccc(O)cc2)coc2cc(O[C@@H]3O[C@H](CO)[C@@H](O)[C@H](O)[C@H]3O)ccc12
AUC of viability dose-response curve
Conditions | NOMO1 [2] | P12-Ichikawa [3] | SEM cells [1]
HPLM + 10% dialyzed FBS | 456 | 473 | 459
RPMI 5 mM glucose + 10% FBS | 468 | 469 | 450
RPMI 5 mM glucose + 10% dialyzed FBS | 467 | 470 | 449

cell viability [%], SEM cells [4]
Conditions | HPLM + 10% dialyzed FBS | RPMI 5 mM glucose + 10% dialyzed FBS
0.000781 µM | 114 | 124
0.00234 µM | 115 | 124
0.00702 µM | 115 | 128
0.0211 µM | 122 | 119
0.0632 µM | 114 | 135
0.19 µM | 120 | 137
0.569 µM | 123 | 126
1.71 µM | 110 | 111
5.12 µM | 121 | 118
15.4 µM | 91.1 | 100
46.1 µM | 79.1 | 70.1

CCCNC(=O)[C@H]1O[C@@H]1C(=O)N[C@H](C(=O)N1CCC[C@H]1C(=O)OC)C(C)CC (some centres undefined)
AUC of viability dose-response curve
Conditions | NOMO1 [2] | P12-Ichikawa [3] | SEM cells [1]
HPLM + 10% dialyzed FBS | 444 | 446 | 439
RPMI 5 mM glucose + 10% FBS | 421 | 416 | 420
RPMI 5 mM glucose + 10% dialyzed FBS | 449 | 424 | 433

C[C@@H]\1COC(=N1)\NC2=CC3=C(C=C2)N=CN=C3NC4=CC(=C(OCC5=NC=CS5)C=C4)Cl
AUC of viability dose-response curve
Conditions | NOMO1 [2] | P12-Ichikawa [3] | SEM cells [1]
HPLM + 10% dialyzed FBS | 454 | 455 | 461
RPMI 5 mM glucose + 10% FBS | 447 | 447 | 457
RPMI 5 mM glucose + 10% dialyzed FBS | 463 | 449 | 457

Fc1ccc(Cl)cc1-c1nc(Nc2ccncc2)c2nccnc2n1
AUC of viability dose-response curve
Conditions | NOMO1 [2] | P12-Ichikawa [3] | SEM cells [1]
HPLM + 10% dialyzed FBS | 461 | 463 | 453
RPMI 5 mM glucose + 10% FBS | 438 | 457 | 464
RPMI 5 mM glucose + 10% dialyzed FBS | 442 | 451 | 467

COC(=O)Nc1ccc(-c2nc(N3CCOCC3)c3cnn(C4CCN(C(=O)OC)CC4)c3n2)cc1
AUC of viability dose-response curve
Conditions | NOMO1 [2] | P12-Ichikawa [3] | SEM cells [1]
HPLM + 10% dialyzed FBS | 337 | 343 | 337
RPMI 5 mM glucose + 10% FBS | 392 | 339 | 375
RPMI 5 mM glucose + 10% dialyzed FBS | 336 | 331 | 382

CC(C)N(CCNC(=O)CN1CCCC1=O)C(C)C
AUC of viability dose-response curve
Conditions | NOMO1 [2] | P12-Ichikawa [3] | SEM cells [1]
HPLM + 10% dialyzed FBS | 430 | 460 | 477
RPMI 5 mM glucose + 10% FBS | 456 | 453 | 460
RPMI 5 mM glucose + 10% dialyzed FBS | 461 | 435 | 476

COC1CCC(C(=O)c2ccc3nc4c(cc3c2)CCCO4)CC1 (centres undefined)
AUC of viability dose-response curve
Conditions | NOMO1 [2] | P12-Ichikawa [3] | SEM cells [1]
HPLM + 10% dialyzed FBS | 421 | 458 | 458
RPMI 5 mM glucose + 10% FBS | 430 | 453 | 422
RPMI 5 mM glucose + 10% dialyzed FBS | 437 | 460 | 438

CC1(C)CC(=O)c2c(C(F)(F)F)nn(-c3ccc(C(N)=O)c(NC4CCC(O)CC4)c3)c2C1 (centres undefined)
cell viability [%]
Conditions | NOMO1 [5] | P12-Ichikawa [6] | SEM cells [4]
HPLM + 10% dialyzed FBS, 0.000781 µM | 83.4 | 90.3 | 93.6
HPLM + 10% dialyzed FBS, 0.00234 µM | 77.1 | 87.3 | 84.7
HPLM + 10% dialyzed FBS, 0.00702 µM | 69 | 85.5 | 88.6
HPLM + 10% dialyzed FBS, 0.0211 µM | 72.5 | 82.4 | 98
HPLM + 10% dialyzed FBS, 0.0632 µM | 96.9 | 90 | 93.5
HPLM + 10% dialyzed FBS, 0.19 µM | 58.7 | 67.1 | 36.8
HPLM + 10% dialyzed FBS, 0.569 µM | 16 | 42 | 20.9
HPLM + 10% dialyzed FBS, 1.71 µM | 14.1 | 33.7 | 18.4
HPLM + 10% dialyzed FBS, 5.12 µM | 15.1 | 36.1 | 19.2
HPLM + 10% dialyzed FBS, 15.4 µM | 15.6 | 36.6 | 16.9
HPLM + 10% dialyzed FBS, 46.1 µM | 78.3 | 80.9 | 77.6
RPMI 5 mM glucose + 10% FBS, 0.000781 µM | 86.5 | 84 | 105
RPMI 5 mM glucose + 10% FBS, 0.00234 µM | 81.8 | 93.5 | 97.5
RPMI 5 mM glucose + 10% FBS, 0.00702 µM | 82.1 | 85.6 | 84.4
RPMI 5 mM glucose + 10% FBS, 0.0211 µM | 84.2 | 77.6 | 84.2
RPMI 5 mM glucose + 10% FBS, 0.0632 µM | 82.2 | 82.2 | 111
RPMI 5 mM glucose + 10% FBS, 0.19 µM | 47.7 | 48.2 | 37.1
RPMI 5 mM glucose + 10% FBS, 0.569 µM | 12.5 | 32.1 | 15.7
RPMI 5 mM glucose + 10% FBS, 1.71 µM | 9.32 | 25.6 | 19.4
RPMI 5 mM glucose + 10% FBS, 5.12 µM | 8.93 | 27.6 | 16.1
RPMI 5 mM glucose + 10% FBS, 15.4 µM | 8.3 | 28.1 | 17.4
RPMI 5 mM glucose + 10% FBS, 46.1 µM | 75.8 | 84.5 | 99.9
RPMI 5 mM glucose + 10% dialyzed FBS, 0.000781 µM | 91.7 | 84.2 | 83.7
RPMI 5 mM glucose + 10% dialyzed FBS, 0.00234 µM | 94.1 | 81.9 | 102
RPMI 5 mM glucose + 10% dialyzed FBS, 0.00702 µM | 102 | 81.9 | 66.3
RPMI 5 mM glucose + 10% dialyzed FBS, 0.0211 µM | 94.5 | 73.1 | 63.5
RPMI 5 mM glucose + 10% dialyzed FBS, 0.0632 µM | 81.6 | 80.8 | 76.6
RPMI 5 mM glucose + 10% dialyzed FBS, 0.19 µM | 48.9 | 44.3 | 34.4
RPMI 5 mM glucose + 10% dialyzed FBS, 0.569 µM | 17.1 | 28.7 | 12.8
RPMI 5 mM glucose + 10% dialyzed FBS, 1.71 µM | 12.1 | 30.4 | 20.6
RPMI 5 mM glucose + 10% dialyzed FBS, 5.12 µM | 12.2 | 25.5 | 17.8
RPMI 5 mM glucose + 10% dialyzed FBS, 15.4 µM | 11.6 | 27.8 | 18.1
RPMI 5 mM glucose + 10% dialyzed FBS, 46.1 µM | 80.6 | 73.7 | 84.3

Cn1cc(CNCC2CCN(c3ncc(C(=O)NO)cn3)CC2)c2ccccc21
AUC of viability dose-response curve
Conditions | NOMO1 [2] | P12-Ichikawa [3] | SEM cells [1]
HPLM + 10% dialyzed FBS | 268 | 262 | 231
RPMI 5 mM glucose + 10% FBS | 276 | 255 | 238
RPMI 5 mM glucose + 10% dialyzed FBS | 271 | 273 | 239

O=C(Nc1ccccc1Br)N[C@@H]1CCN(c2ccc(C(F)(F)F)cn2)C1
AUC of viability dose-response curve
Conditions | NOMO1 [2] | P12-Ichikawa [3] | SEM cells [1]
HPLM + 10% dialyzed FBS | 448 | 448 | 469
RPMI 5 mM glucose + 10% FBS | 432 | 443 | 461
RPMI 5 mM glucose + 10% dialyzed FBS | 447 | 454 | 469

cell viability [%], SEM cells [4]
Conditions | HPLM + 10% dialyzed FBS | RPMI 5 mM glucose + 10% FBS
0.000781 µM | 119 | 117
0.00234 µM | 121 | 94.6
0.00702 µM | 136 | 107
0.0211 µM | 131 | 122
0.0632 µM | 127 | 113
0.19 µM | 121 | 112
0.569 µM | 126 | 105
1.71 µM | 133 | 112
5.12 µM | 122 | 98.9
15.4 µM | 120 | 106
46.1 µM | 117 | 85
